Where two headings read alike, the source gives them in different places.
Assays:
HIF-1α = conditions: cited from earlier work
[1] = tested on: Lewis lung carcinoma (LLC) cells; assay: Lewis lung carcinoma allograft in C57BL/6J mice with immunohistochemistry; assay type: in vivo, mouse
Experimental: HIF-1α is synthesized by growth factor signaling pathways, such as those of EGFR [30] [31]. Inhibition of HIF-1α in its pathways of synthesis, as well as in its pathway of degradation, would seem to make for a more efficient anti-cancer/anti-angiogenesis treatment. To confirm this, we performed a tumor allogaft experiment using Lewis lung carcinoma (LLC) cells. 1 × 10^6 LLC cells were inoculated into the mouse flank subcutaneously (s.c.), and treatment with Compound 12 (5 mg/kg) and/or gefitinib (an EGFR inhibitor, 50 mg/kg), via intraperitoneal (i.p.) administration, was performed every other day for 20 days. At Day 20, mice were sacrificed and tumor tissue was fixed in formaldehyde for 1 h for further histological examination. […] To confirm the effect of Compound 12 on angiogenesis, we analyzed angiogenesis using the Matrigel plug assay. […] To confirm the effects of Compound 12 on anti-angiogenesis, we sectioned the tumor tissues to determine microvessel density (MSD) via immunohistochemistry (using CD31 antibody).
Figure 6 Compound 12 suppressed allogaft tumor growth and enhanced the effects of a chemotherapeutic agent (A, B) Lewis lung carcinoma cells were inoculated into flanks of C57BL/6J mice (Day 0). From two days after inoculation, mice were treated intraperitoneally with Compound 12 (5 mg/kg body weight) and gefitinib (50 mg/kg body weight), three times a week, for 18 days and then sacrificed. Tumor size (A) and tumor weight (B) were measured three times a week and on the final day, respectively. Tumor masses were photographed and shown in box below the graph. **P < 0.05 versus control group. (C) Matrigel was treated with DMSO, Compound 12 (100 nM), and gefitinib (5 μM) and inoculated in the flank of C57BL/6J mice. After 10 days matrigel plug was removed and photographed. The content of hemoglobin was quantified and graphed. (D) Tumor tissue sections (10 μm) indicated were stained with H&E and immunostained with anti-CD31 antibody to detect microvessel density; CD31+ cell percentages were then calculated and graphed. Scale bar, 100 μm. **P < 0.05 versus control group. (E) Images and quantitative comparisons (graph) for hypoxic regions, immunostained CA9 protein, and microvessels (CD31+ cells) in tumor center regions are shown. Scale bar, 100 μm. **P < 0.05 versus control group. (F) Images and quantitative comparisons (graph) for Ki67+ proliferating cells in tumor center regions are shown. Scale bar, 100 μm. **P < 0.05 versus control group.
We determined levels of hypoxia in tissues via: 1) antibodies against the hypoxic cell marker pimonidazole (PIMO), and 2) checking expression levels of carbonic anhydrase (CA9), a downstream target of HIF-1.
LLC cells (1 × 10^6) were injected subcutaneously into the flanks of 6-week-old C57BL/6J mice (Day 0)(SLC, Japan). Tumor size and body weight were measured 3 time a week. Tumor tissues were removed at day 20 after completion of injection of vehicle or drugs and fixed with 4% paraformaldehyde (PFA). After tissue processing for frozen sample preparation protocol, samples were embedded in OCT compound and frozen quickly by liquid nitrogen. Frozen blocks were cut into 10 μm sections and stained with hematoxylin and eosin (H&E) for light microscopy. Additional tissue sections for immunohistochemistry were blocked with 5% goat serum in PBST (0.03% Triton X-100 in PBS) and then incubated for 3 h at RT with following primary antibodies, anti-CD31 and anti-Ki67. To detect the hypoxic area in the tumors, Hypoxyprobe-1™ (60 mg/kg, Natural Pharmacia International) was iv injected 90 min before tissue fixation. Tumors were harvested, sectioned and stained with FITC-conjugated anti-Hypoxyprobe antibody.

[2] = tested on: angiogenesis (hemoglobin content of Matrigel plug); assay: Matrigel plug assay in C57BL/6J mice; assay type: in vivo, mouse; conditions: Compound 12 100 nM, gefitinib 5 μM in Matrigel, 10 days
Experimental: HIF-1α is synthesized by growth factor signaling pathways, such as those of EGFR [30] [31]. Inhibition of HIF-1α in its pathways of synthesis, as well as in its pathway of degradation, would seem to make for a more efficient anti-cancer/anti-angiogenesis treatment. To confirm this, we performed a tumor allogaft experiment using Lewis lung carcinoma (LLC) cells. 1 × 10^6 LLC cells were inoculated into the mouse flank subcutaneously (s.c.), and treatment with Compound 12 (5 mg/kg) and/or gefitinib (an EGFR inhibitor, 50 mg/kg), via intraperitoneal (i.p.) administration, was performed every other day for 20 days. […] To confirm the effect of Compound 12 on angiogenesis, we analyzed angiogenesis using the Matrigel plug assay. […]
Figure 6 Compound 12 suppressed allogaft tumor growth and enhanced the effects of a chemotherapeutic agent (A, B) Lewis lung carcinoma cells were inoculated into flanks of C57BL/6J mice (Day 0). […] Tumor size (A) and tumor weight (B) were measured three times a week and on the final day, respectively. […] The content of hemoglobin was quantified and graphed. (D) Tumor tissue sections (10 μm) indicated were stained with H&E and immunostained with anti-CD31 antibody to detect microvessel density; CD31+ cell percentages were then calculated and graphed. […] (F) Images and quantitative comparisons (graph) for Ki67+ proliferating cells in tumor center regions are shown. […]

[3] = tested on: chick chorioallantoic membrane angiogenesis; assay: Chick embryo chorioallantoic membrane (CAM) assay; assay type: in vivo; conditions: applied to ED 4.5 CAM for two days; Compound 12 0.1 μg and 1 μg
Experimental: Figure 5 Compound 12 suppressed HIF-1α target gene expression, and confirmation of in vitro results via determination of effects on angiogenesis in vivo (A) A549 cells were treated with Compound 12 (at concentrations of 0 nM, 1 nM, 10 nM, and 100 nM) for 16 h. The mRNA levels of HIF-1α target genes were determined by semiquantitative RT-PCR. β-actin was used as an internal control. D. DMSO vehicle control. N, normoxia; H, hypoxia. (B) A549 cells were treated with serum-reduced culture media containing Compound 12 (at concentrations of 0 nM, 10 nM, and 100 nM) for 16 h. Media supernatant was collected, and secreted VEGF was determined by ELISA after removal of cellular debris. N, normoxia; H, hypoxia. **P < 0.01 versus hypoxia (H) DMSO (D)-treated control. (C) HUVECs were treated with Compound 12, at the indicated concentrations, in the presence of VEGF (20 ng/mL) for 24 h in 1% serum-containing media. […] Cells that migrated through the membrane (8 μm pore size) were stained with hematoxylin and eosin, pictured as shown in upper panel, and counted (graph). *P < 0.05, **P < 0.01 versus VEGF-treated control. […] (F) Compound 12 (0.1 μg and 1 μg dosages) and retinoic acid (RA, positive control) were applied to the ED 4.5 CAM for two days, neovessel formation from the large vessels was observed, and percentages of positive angiogenic eggs (from total eggs tested) were calculated. […]

[4] = read-out: IC50 of HIF-1α inhibitor

SMILES: COC(=O)c1ccc(O)c(NC(=O)COc2ccc(C34CC5CC(CC(C5)C3)C4)cc2)c1 [LW6]
- IC50 (HIF-1α; [4]): 2500 to 3000 nM

SMILES: CC1(C)C=Cc2c(ccc(C(=O)/C=C/c3cccs3)c2O)O1 [SYP-5]
- IC50 (HIF-1α; [4]): 10000 nM

SMILES: OCc1ccc(-c2nn(Cc3ccccc3)c3ccccc23)o1 [YC-1, 3-(5′-hydroxymethyl-2′-furyl)-1-benzyl indazole]
- IC50 (HIF-1α; [4]): 2000 to 50000 nM

SMILES: CC(C)C[C@H](NC(=O)[C@H](Cc1ccccc1)NC(=O)c1cnccn1)B(O)O [bortezomib]
- concentrations inhibiting p300-HIF-1α binding / HIF-1α (HIF-1α; prostate cancer cells): 0.6 to 30 nM

SMILES: CS[C@H]1SC[C@H]2C(=O)N(C)[C@@H](C(C)C)C(=O)OC[C@@H](NC(=O)c3cnc4ccccc4n3)C(=O)N[C@@H](C)C(=O)N(C)[C@@H]1C(=O)N(C)[C@@H](C(C)C)C(=O)OC[C@@H](NC(=O)c1cnc3ccccc3n1)C(=O)N[C@@H](C)C(=O)N2C [echinomycin]
- IC50 (HIF-1α; reference not given, read-out: inhibitory concentration of HIF-1α inhibitor): 1.2 nM

SMILES: COc1cc2ncnc(Nc3ccc(F)c(Cl)c3)c2cc1OCCCN1CCOCC1 [gefitinib, reference compound]
- levels of PIMO and CA9 in tumors, single agent ([1]; LLC allograft tumor sections): significantly diminished
- microvessel density (MSD), CD31, single agent ([1]; LLC allograft tumor sections): significantly decreased MSD
- cells expressing Ki-67 protein in tumors ([1]; LLC allograft tumor sections, single agent): significantly decreased
- tumor growth, single agent ([1]; LLC allograft, C57BL/6J mice, i.p., Compound 12 5 mg/kg, gefitinib 50 mg/kg): inhibited tumor growth significantly
- anti-angiogenic activity, Matrigel plug (hemoglobin content) [2]: anti-angiogenic activity was increased

SMILES: CC1=C(/C=C/C(C)=C/C=C/C(C)=C/C(=O)O)C(C)(C)CCC1 [retinoic acid, reference compound]
- CAM angiogenesis [3]: significantly suppressed CAM angiogenesis

— paper PMC5352362, “Molecular and functional evaluation of a novel HIF inhibitor, benzopyranyl 1,2,3-triazole compound” (Oncotarget, 2016)
